Holding throughout (conditions): Compound concentration 10 µM
The target in experiment [1] is Delta-type opioid receptor (Homo sapiens) (UniProt P41143).
Experiment [2] has as its target 5-hydroxytryptamine receptor 1B (Homo sapiens) (UniProt P28222).
Experiment [3] addresses 5-hydroxytryptamine receptor 2B (Homo sapiens) (UniProt P41595).
The target of experiment [4] is Sodium-dependent dopamine transporter (Homo sapiens) (UniProt Q01959).
For experiment [5], the target named is D(2) dopamine receptor (Homo sapiens) (UniProt P14416).
Experiment [6] has as its target Sigma intracellular receptor 2 (Homo sapiens) (UniProt Q5BJF2).
For experiment [7], the target named is D(3) dopamine receptor (Homo sapiens) (UniProt P35462).
For experiment [8], the target named is D(1B) dopamine receptor (Homo sapiens) (UniProt P21918).
For experiment [9], the target named is Muscarinic acetylcholine receptor M3 (Homo sapiens) (UniProt P20309).
The target in experiment [10] is T1, 5-hydroxytryptamine receptor 3A (Homo sapiens) (UniProt P46098).
T1 sequence (whole entry): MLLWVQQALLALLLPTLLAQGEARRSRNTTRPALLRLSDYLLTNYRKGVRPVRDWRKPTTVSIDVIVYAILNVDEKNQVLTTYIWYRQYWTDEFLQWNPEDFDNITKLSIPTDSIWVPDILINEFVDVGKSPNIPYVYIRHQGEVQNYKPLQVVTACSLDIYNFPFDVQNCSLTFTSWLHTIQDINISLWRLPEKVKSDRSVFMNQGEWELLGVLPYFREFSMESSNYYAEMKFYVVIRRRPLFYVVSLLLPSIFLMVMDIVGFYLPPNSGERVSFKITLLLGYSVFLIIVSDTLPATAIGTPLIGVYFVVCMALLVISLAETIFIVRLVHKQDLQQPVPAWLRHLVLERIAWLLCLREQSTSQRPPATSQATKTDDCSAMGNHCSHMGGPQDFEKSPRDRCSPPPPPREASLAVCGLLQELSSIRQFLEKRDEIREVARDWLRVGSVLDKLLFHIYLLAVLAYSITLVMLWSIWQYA

Experiment [11] concerns the target 5-hydroxytryptamine receptor 7 (Homo sapiens) (UniProt P34969).
In experiment [12] the target is 5-hydroxytryptamine receptor 1D (Homo sapiens) (UniProt P28221).
The target of experiment [13] is T2, Alpha-1D adrenergic receptor (Homo sapiens) (UniProt P25100).
T2 sequence (whole entry): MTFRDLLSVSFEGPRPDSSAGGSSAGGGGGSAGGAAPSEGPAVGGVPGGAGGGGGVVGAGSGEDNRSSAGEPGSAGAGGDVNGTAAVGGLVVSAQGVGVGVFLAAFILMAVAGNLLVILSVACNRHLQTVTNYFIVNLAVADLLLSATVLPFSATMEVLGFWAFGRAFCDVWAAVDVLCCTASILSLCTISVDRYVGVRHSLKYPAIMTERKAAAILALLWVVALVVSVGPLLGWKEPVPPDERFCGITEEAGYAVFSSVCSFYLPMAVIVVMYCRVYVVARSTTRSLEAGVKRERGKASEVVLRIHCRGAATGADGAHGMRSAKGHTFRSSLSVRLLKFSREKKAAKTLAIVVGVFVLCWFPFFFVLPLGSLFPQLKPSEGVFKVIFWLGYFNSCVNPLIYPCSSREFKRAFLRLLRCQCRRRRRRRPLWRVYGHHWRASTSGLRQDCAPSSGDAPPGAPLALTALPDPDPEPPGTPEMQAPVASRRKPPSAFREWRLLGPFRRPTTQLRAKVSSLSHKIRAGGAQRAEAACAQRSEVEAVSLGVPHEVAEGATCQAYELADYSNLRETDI

Experiment [14] deals with Mu-type opioid receptor (Homo sapiens) (UniProt P35372).
The target in experiment [15] is T3, Alpha-1A adrenergic receptor (Homo sapiens) (UniProt P35348).
T3 sequence (whole entry): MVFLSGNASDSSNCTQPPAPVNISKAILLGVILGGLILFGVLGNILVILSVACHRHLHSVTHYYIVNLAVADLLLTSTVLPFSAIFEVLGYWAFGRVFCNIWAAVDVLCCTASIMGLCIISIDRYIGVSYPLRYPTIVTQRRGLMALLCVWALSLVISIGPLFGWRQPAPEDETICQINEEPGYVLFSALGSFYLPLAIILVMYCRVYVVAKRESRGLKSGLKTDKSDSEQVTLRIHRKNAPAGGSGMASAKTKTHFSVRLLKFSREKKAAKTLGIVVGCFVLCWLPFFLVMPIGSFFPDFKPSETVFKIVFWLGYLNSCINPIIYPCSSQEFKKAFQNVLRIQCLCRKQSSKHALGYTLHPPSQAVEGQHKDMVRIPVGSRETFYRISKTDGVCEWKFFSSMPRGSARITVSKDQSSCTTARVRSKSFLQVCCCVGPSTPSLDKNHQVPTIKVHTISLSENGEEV

Experiment [16] deals with Beta-2 adrenergic receptor (Homo sapiens) (UniProt P07550).
Experiment [17] addresses T4, Muscarinic acetylcholine receptor M1 (Homo sapiens) (UniProt P11229).
T4 sequence (whole entry): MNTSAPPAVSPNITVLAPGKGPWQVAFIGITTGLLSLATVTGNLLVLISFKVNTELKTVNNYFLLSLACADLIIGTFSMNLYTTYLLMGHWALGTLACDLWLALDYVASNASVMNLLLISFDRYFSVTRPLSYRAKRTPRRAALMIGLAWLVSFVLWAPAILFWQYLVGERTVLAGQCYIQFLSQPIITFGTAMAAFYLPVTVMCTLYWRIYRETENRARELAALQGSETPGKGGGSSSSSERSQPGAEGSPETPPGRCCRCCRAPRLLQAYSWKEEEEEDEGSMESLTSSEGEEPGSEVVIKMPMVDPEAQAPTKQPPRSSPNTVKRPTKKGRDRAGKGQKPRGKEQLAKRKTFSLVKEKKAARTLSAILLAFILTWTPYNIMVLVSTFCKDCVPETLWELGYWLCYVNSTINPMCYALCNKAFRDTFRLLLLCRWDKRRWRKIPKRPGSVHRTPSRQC

In experiment [18] the target is Histamine H4 receptor (Homo sapiens) (UniProt Q9H3N8).
Experiment [19] concerns the target 5-hydroxytryptamine receptor 2A (Homo sapiens) (UniProt P28223).
For experiment [20], the target named is Histamine H1 receptor (Homo sapiens) (UniProt P35367).

The values below come from ChEMBL document CHEMBL5442219.

Sigma intracellular receptor 2 (Homo sapiens), sequence (Q5BJF2 whole entry): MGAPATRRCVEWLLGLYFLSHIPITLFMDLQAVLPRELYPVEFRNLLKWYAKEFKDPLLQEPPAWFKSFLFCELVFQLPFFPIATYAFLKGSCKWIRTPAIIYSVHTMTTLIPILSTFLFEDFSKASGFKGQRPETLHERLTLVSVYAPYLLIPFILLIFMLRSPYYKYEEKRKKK
5-hydroxytryptamine receptor 7 (Homo sapiens), sequence (P34969 whole entry): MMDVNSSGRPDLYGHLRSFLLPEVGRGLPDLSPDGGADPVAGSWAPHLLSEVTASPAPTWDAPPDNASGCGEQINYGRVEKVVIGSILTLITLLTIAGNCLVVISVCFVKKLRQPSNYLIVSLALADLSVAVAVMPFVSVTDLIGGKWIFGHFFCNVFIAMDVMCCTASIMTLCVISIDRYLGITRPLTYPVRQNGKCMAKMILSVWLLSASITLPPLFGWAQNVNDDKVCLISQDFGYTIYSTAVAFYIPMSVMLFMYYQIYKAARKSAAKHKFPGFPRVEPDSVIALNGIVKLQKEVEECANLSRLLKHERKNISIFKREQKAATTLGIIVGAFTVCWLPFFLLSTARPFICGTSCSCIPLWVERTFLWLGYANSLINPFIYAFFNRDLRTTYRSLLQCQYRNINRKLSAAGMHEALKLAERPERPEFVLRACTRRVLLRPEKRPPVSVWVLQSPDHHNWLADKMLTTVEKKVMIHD
5-hydroxytryptamine receptor 1D (Homo sapiens), sequence (P28221 whole entry): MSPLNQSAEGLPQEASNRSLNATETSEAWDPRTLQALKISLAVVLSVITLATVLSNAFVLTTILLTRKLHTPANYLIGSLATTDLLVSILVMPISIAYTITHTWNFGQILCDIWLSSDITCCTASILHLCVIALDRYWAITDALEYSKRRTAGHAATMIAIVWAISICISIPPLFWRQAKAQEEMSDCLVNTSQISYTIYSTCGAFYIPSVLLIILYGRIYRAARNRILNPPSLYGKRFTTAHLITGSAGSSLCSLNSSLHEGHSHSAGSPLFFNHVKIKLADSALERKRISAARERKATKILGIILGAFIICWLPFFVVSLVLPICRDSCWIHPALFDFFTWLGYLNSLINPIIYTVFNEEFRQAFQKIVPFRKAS
D(2) dopamine receptor (Homo sapiens), sequence (P14416 whole entry): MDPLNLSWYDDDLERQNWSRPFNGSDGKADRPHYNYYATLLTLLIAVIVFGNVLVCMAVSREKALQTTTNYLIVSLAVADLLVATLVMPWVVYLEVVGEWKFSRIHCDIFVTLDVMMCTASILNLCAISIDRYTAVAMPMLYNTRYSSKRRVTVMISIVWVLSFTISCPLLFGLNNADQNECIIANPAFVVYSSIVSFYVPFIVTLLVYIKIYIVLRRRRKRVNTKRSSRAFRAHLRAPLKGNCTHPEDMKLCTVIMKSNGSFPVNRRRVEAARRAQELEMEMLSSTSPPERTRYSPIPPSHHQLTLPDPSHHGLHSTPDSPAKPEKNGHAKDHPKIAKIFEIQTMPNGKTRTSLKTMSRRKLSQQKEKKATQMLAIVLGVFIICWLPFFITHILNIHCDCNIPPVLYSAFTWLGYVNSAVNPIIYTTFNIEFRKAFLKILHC
Histamine H4 receptor (Homo sapiens), sequence (Q9H3N8 whole entry): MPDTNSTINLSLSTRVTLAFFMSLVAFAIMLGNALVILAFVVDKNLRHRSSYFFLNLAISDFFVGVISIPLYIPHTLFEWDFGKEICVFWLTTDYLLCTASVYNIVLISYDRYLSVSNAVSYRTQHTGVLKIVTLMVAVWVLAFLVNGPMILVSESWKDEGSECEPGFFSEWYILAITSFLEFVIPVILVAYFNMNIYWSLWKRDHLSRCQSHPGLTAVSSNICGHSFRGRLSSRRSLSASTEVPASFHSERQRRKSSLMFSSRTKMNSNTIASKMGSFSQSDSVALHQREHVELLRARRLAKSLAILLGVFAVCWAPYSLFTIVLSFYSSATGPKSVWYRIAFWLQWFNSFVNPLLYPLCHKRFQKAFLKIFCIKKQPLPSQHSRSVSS
D(1B) dopamine receptor (Homo sapiens), sequence (P21918 whole entry): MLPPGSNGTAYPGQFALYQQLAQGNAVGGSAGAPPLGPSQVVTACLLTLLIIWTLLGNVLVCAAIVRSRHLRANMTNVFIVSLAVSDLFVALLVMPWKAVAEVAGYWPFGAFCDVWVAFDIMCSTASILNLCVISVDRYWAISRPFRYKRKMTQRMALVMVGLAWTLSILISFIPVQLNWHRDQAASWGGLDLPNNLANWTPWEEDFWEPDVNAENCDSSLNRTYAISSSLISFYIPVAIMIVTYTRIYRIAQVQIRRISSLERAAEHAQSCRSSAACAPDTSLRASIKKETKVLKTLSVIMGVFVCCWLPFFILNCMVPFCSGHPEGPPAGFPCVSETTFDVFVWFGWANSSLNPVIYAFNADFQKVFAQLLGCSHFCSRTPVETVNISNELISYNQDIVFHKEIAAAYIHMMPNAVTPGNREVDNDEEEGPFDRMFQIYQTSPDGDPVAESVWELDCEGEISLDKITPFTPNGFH
D(3) dopamine receptor (Homo sapiens), sequence (P35462 whole entry): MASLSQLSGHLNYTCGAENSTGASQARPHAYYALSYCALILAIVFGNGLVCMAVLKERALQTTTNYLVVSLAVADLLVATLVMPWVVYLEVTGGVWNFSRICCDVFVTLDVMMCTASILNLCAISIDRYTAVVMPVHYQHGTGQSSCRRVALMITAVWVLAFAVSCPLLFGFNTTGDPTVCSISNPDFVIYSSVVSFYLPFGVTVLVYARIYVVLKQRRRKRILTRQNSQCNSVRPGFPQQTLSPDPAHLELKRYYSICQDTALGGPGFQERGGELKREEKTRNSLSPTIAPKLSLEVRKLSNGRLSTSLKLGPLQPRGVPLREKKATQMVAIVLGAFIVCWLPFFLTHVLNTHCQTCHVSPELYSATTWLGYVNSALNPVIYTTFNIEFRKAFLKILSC
Mu-type opioid receptor (Homo sapiens), sequence (P35372 whole entry): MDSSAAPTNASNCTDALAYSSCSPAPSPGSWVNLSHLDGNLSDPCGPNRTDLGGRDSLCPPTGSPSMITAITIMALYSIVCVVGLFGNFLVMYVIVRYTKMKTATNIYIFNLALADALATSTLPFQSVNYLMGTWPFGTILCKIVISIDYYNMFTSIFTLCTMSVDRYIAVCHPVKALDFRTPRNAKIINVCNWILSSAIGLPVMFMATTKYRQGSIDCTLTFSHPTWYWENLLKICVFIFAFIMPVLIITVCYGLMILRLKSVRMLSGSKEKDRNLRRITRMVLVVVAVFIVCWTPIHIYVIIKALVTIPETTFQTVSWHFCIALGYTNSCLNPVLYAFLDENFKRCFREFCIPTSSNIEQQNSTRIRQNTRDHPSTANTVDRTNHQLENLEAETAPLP
Beta-2 adrenergic receptor (Homo sapiens), sequence (P07550 whole entry, looked up): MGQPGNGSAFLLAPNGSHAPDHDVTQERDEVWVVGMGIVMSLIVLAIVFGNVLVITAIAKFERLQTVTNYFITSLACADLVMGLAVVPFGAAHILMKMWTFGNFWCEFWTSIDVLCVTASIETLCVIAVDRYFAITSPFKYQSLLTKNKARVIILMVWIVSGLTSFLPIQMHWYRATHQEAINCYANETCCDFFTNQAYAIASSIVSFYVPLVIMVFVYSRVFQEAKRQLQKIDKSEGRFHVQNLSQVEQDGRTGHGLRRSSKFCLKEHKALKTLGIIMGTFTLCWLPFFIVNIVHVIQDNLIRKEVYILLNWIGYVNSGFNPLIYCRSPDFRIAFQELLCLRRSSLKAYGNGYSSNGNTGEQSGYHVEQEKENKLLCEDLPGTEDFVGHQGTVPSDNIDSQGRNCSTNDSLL
Sodium-dependent dopamine transporter (Homo sapiens), sequence (Q01959 whole entry): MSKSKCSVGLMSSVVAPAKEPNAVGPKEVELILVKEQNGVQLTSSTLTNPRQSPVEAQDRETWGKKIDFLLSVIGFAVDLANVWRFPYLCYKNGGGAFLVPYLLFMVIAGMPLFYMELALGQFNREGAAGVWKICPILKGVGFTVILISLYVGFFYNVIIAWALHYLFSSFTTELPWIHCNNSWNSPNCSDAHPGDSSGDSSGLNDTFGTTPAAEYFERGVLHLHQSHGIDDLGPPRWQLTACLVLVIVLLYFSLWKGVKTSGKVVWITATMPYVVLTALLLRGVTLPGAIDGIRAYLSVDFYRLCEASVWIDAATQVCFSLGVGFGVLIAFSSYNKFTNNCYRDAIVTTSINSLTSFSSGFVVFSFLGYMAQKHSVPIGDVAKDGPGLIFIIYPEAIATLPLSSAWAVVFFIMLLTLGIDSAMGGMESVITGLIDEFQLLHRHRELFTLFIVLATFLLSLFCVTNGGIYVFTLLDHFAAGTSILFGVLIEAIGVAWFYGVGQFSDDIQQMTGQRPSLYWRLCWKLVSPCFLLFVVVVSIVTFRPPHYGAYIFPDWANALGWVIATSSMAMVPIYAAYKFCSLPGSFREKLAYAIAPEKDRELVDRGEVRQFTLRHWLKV
Muscarinic acetylcholine receptor M3 (Homo sapiens), sequence (P20309 whole entry, looked up): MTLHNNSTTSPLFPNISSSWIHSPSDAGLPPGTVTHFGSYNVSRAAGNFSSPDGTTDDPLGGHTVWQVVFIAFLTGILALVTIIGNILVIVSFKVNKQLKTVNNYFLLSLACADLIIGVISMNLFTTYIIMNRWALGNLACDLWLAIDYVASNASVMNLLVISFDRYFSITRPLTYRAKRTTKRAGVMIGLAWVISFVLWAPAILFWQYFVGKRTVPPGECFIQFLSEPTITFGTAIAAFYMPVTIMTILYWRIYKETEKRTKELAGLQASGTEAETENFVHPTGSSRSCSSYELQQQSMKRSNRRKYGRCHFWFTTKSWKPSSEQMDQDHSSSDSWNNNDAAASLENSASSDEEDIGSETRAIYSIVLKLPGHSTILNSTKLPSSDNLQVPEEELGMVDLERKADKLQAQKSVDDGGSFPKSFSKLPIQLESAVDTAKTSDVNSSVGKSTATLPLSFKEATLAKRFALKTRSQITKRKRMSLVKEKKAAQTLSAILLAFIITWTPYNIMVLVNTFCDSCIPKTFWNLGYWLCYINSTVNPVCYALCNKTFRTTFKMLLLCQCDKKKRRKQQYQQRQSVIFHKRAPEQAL

As usually defined, the inhibition is the relative decrease from the control value, in per cent. On to `CN1CCCC(n2nc(Cc3ccc(Cl)cc3)c3ccccc3c2=O)CC1` (stereo unspecified), for which the inhibition in experiment [1] was 24.1%; in experiment [2] it was 66.5%; in experiment [3], 89.5%; in experiment [4], 25.9%; in [5] it was 79.1%; in experiment [6], 97%. The inhibition in experiment [7] is 83.9%; in [8], 24.1%; in [9] it was 57.3%; in experiment [10], 96.4%; in experiment [11], 80.4%; in experiment [12], 57.9%. In addition, the inhibition in experiment [13] was 88.2%; in experiment [14] it was 29.4%; in [15], 87.7%; in [16], -8.69%; in [17], 82.9%; in experiment [18] it was 1.53%. Moreover, the inhibition in [19] was 96.7%.

Take `CS(=O)(=O)NC[C@H]1CC[C@H](Nc2nc3c(s2)CCSc2ccccc2-3)CC1`: the inhibition is 4.54% in experiment [1]; 83% in experiment [3]; 3.98% in [4]; 4.83% in [5]; 81.4% in experiment [6]; 67.2% in experiment [7]. Also, the inhibition in experiment [8] was -6.36%; in [9], -7.8%; in experiment [10], 0.88%; in [11], 39.7%; in [12], 50.8%; in experiment [13], 2.44%. The inhibition in experiment [14] is -6.3%; in experiment [20] it was 18.7%; in experiment [15] it was -9.44%; in experiment [16], 94.4%; in experiment [17], -1.96%; in [18] it was -4.86%. Moreover, the inhibition in experiment [19] is 23.7%.

As for `Cc1nc(C#Cc2ccnc(Cl)c2)c(C)n1-c1ccc(OC(F)(F)F)cc1`, the inhibition is -5.91% in experiment [1]; 11.3% in experiment [2]; 19.6% in experiment [3]; 8% in [4]; 28.3% in [5]; 75.5% in [6]. The inhibition in experiment [7] is 13.1%; in [8], 6%; in experiment [9], -6.52%; in experiment [10], -5.17%; in experiment [11], 7.42%; in experiment [12] it was 48.9%. The inhibition in [13] is 20.7%; in experiment [14], 13.4%; in experiment [20], -4.73%; in experiment [15] it was 14.3%; in experiment [17], 26.6%; in [18], -9.98%. For the same compound, in experiment [19], the inhibition is 16.1%.

Consider `O=C(O)c1cc(-c2ccc(C3CCNCC3)cc2)c2ccc(-c3ccc(C(F)(F)F)cc3)cc2c1`, for which the inhibition in [1] is 14%; in [2], 73.7%; in experiment [3], 26.6%; in experiment [4], 82.5%; in [5] it was 11.9%; in experiment [6], 81.1%. The inhibition in experiment [7] is 28.9%; in experiment [8] it was 81%; in experiment [9], 1.23%; in [10], 21.6%; in [11], 51.5%; in experiment [12], 73.1%. For the same compound, the inhibition in [13] is 16.7%; in [14] it was 26.5%; in experiment [20], 42.8%; in [16], -2.41%; in [17], 23.8%; in experiment [18], -8.87%. Also, in experiment [19], the inhibition was 28.4%.

Take `OC[C@H]1O[C@@H](n2cnc3c(NC4CCCC4)ncnc32)[C@H](O)[C@@H]1O`: the inhibition in experiment [1] is -3.21%; in experiment [2] it was 15.9%; in [3] it was 38.5%; in experiment [4] it was 36.9%; in experiment [5] it was 25%; in experiment [6] it was 14.2%. The inhibition is 7.26% in experiment [7]; 80.8% in [8]; -0.28% in experiment [9]; 3.29% in experiment [10]; 16.1% in experiment [11]; 24.7% in experiment [12]. Besides, the inhibition in experiment [13] is -2.06%; in experiment [20], 2.72%; in experiment [15], -0.37%; in [16], -3.65%; in experiment [17] it was 15.4%; in experiment [19], -8.74%.

Regarding `Cc1nn(C)c(C)c1-c1cccc2c1CC[C@H](N(C)C)C2`, the inhibition in experiment [1] is -4.68%; in experiment [2], 91.5%; in experiment [3], 84.9%; in experiment [4], 37.9%; in experiment [5], 32.7%; in experiment [6] it was 79.1%. Besides, the inhibition was -2.85% in experiment [7]; 26% in experiment [8]; 44.1% in experiment [9]; 85.9% in experiment [10]; 94.1% in [11]; 95.6% in [12]. Moreover, the inhibition in experiment [13] was 2.35%; in experiment [14], 14.6%; in experiment [20] it was 9.36%; in [15], 15.3%; in experiment [16], 20.2%; in experiment [17] it was 29.3%.

In the case of `Cc1cc(C)cc(-c2cnc3cc(Cl)c(-c4cccc(O)c4)cc3c2OCCCN)c1`, the inhibition was 50.2% in experiment [1]; 88.2% in [2]; 88.6% in experiment [3]; 37.3% in experiment [5]; 94.9% in experiment [6]; 95.9% in experiment [7]. Besides, the inhibition is 72.9% in experiment [8]; 59.2% in [9]; 43.9% in experiment [10]; 54.9% in experiment [11]; 91.8% in experiment [12]; 53.7% in [13]. Also, the inhibition in experiment [14] was 75.9%; in [20], 98.8%; in [15], 28.4%; in experiment [16] it was 92.8%; in experiment [17], 24.3%; in experiment [18] it was 68.2%. In addition, the inhibition in experiment [19] was 63.2%.
